Measured values taken from PMC3677616, “Interaction of Human Dopa Decarboxylase with L-Dopa: Spectroscopic and Kinetic Studies as a Function of pH” (BioMed Research International, 2013).
Blank lines part the entries; values can stand above or below the molecule they belong to.

What was measured:
[1] = target: T1, hDDC (human Dopa decarboxylase) (Homo sapiens, UniProt P20711); test: stopped-flow absorbance at […] nm, hyperbolic fit of kobs (two-step binding); conditions: read-out: K1
T1 construct: gene DDC; homodimer
T1 sequence (P20711 1-480): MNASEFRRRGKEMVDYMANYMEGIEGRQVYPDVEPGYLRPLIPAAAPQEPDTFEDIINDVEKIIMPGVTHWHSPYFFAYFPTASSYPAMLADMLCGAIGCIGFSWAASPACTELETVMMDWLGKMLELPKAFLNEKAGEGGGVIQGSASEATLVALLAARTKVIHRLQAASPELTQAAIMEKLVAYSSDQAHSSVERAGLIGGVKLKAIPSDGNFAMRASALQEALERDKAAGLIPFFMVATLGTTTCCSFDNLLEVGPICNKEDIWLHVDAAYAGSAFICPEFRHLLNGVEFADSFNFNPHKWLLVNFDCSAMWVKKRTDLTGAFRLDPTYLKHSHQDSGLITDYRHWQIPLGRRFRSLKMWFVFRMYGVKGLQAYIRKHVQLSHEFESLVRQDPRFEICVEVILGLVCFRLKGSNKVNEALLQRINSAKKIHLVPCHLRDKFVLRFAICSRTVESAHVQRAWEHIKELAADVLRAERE

[2] = target: T1, hDDC (human Dopa decarboxylase); test: quenching of intrinsic fluorescence of apoenzyme, tight-binding quadratic fit; conditions: read-out: KD(PLP)
[3] = substrate: N[C@@H](Cc1ccc(O)c(O)c1)C(=O)O; test: steady-state decarboxylation, spectrophotometric assay, Michaelis-Menten fit; format: biochemical, Homo sapiens; conditions: pH 6.0, 50 mM Bis-Tris-propane, 10 μM PLP, 25°C

- Kd [1]: 320 ± 20 µM
Molecule: N[C@@H](Cc1ccc(O)c(O)c1)C(=O)O [L-Dopa]

- Kd [2]: 0.2 µM
Molecule: Cc1ncc(COP(=O)(O)O)c(C=O)c1O [PLP]

B1: hDDC (human Dopa decarboxylase) (Homo sapiens) (protein)
chain: MNASEFRRRGKEMVDYMANYMEGIEGRQVYPDVEPGYLRPLIPAAAPQEPDTFEDIINDVEKIIMPGVTHWHSPYFFAYFPTASSYPAMLADMLCGAIGCIGFSWAASPACTELETVMMDWLGKMLELPKAFLNEKAGEGGGVIQGSASEATLVALLAARTKVIHRLQAASPELTQAAIMEKLVAYSSDQAHSSVERAGLIGGVKLKAIPSDGNFAMRASALQEALERDKAAGLIPFFMVATLGTTTCCSFDNLLEVGPICNKEDIWLHVDAAYAGSAFICPEFRHLLNGVEFADSFNFNPHKWLLVNFDCSAMWVKKRTDLTGAFRLDPTYLKHSHQDSGLITDYRHWQIPLGRRFRSLKMWFVFRMYGVKGLQAYIRKHVQLSHEFESLVRQDPRFEICVEVILGLVCFRLKGSNKVNEALLQRINSAKKIHLVPCHLRDKFVLRFAICSRTVESAHVQRAWEHIKELAADVLRAERE
notes: homodimer
- Km [3]: 230 ± 30 µM
- kcat [3]: 3 s⁻¹
